# Experimental data as given in US9271978B2 (Zenith Epigenetics Corp., priority 2012, dated 2016).
# Assays:
# Design in all cases: key: Active: Compounds with an IC50 value less than 30 μM were deemed to be active.; Not Active: Compounds with an IC50 value less than 30 μM were deemed to be active
# [1] = target: T1, second bromodomain of Brd2 (BRD2(2)) (Homo sapiens, UniProt P25440); experiment: Inhibition of tetra-acetylated histone H4 binding to Brd2 bromodomain 2 (TR-FRET); conditions: tetra-acetylated histone H4 peptide, active = IC50 <30 μM
# T1 construct: made in house; host or cells: E. coli BL21 (DE3)
# Procedure, shortened: (§1)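 IC50 values come from dose-response curves of the 665 nm to 620 nm TR-FRET signal decrease, measured after 2 h at room temperature. Reactions contained 200 nM E. coli-expressed His-tagged bromodomain, 25-50 nM biotinylated tetra-acetylated H4 peptide, Eu-streptavidin plus XL665 anti-His antibody, with 30 mM HEPES pH 7.4, 320 mM KF and 0.2% DMSO.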
# [2] = target: T2, Brd4 bromodomain 1 (BRD4(1)) (Homo sapiens, UniProt O60885); experiment: Inhibition of tetra-acetylated histone H4 binding to Brd4 bromodomain 1 (TR-FRET); conditions: tetra-acetylated histone H4 peptide, active = IC50 <30 μM
# T2 construct: Illustrative results with the first bromodomain of Brd4; made in house; host or cells: E. coli BL21 (DE3)
# Procedure, shortened: as §1
# [3] = system: human AML MV-4-11 (CRL-9591) cells; experiment: Inhibition of cell proliferation in MV4-11 cells; assay type: cell-based; conditions: human AML MV-4-11 cells, 72 h; active = IC50 <30 μM
# Experimental: MV4-11 cells: 96-well plates were seeded with 5×10^4 cells per well of exponentially growing human AML MV-4-11 (CRL-9591) cells and immediately treated with two-fold dilutions of test compounds, ranging from 30 μM to 0.2 μM. Triplicate wells were used for each concentration, as well as a media only and three DMSO control wells. The cells and compounds were incubated at 37° C., 5% CO2 for 72 h before adding 20 μL of the CellTiter Aqueous One Solution (Promega) to each well and incubating at 37° C., 5% CO2 for an additional 3-4 h. The absorbance was taken at 490 nm in a spectrophotometer and the percentage of proliferation relative to DMSO-treated cells was calculated after correction from the blank well. IC50 were calculated using the GraphPad Prism software.
# c-myc = experiment: Inhibition of c-myc expression in MV4-11 cells (mRNA, real-time PCR); assay type: cell-based; conditions: Human AML MV4-11 cells, 3 h incubation
# Experimental: MV4-11 cells (2.5×10^4 cells) were plated in 96 well U-bottom plates with test compound or DMSO (0.1%), and incubated for 3 h at 37° C. Cells were then harvested by centrifugation, lysed, and mRNA was isolated using the mRNA catcher plus kit (Invitrogen). Reverse transcription of the mRNA and duplex amplification of the c-myc and cyclophilin cDNAs was performed using the RNA Ultrasense kit (Invitrogen) and a ViiA7 real-time PCR machine (Applied Biosystems). IC50 values were determined from a dose response curve.
# hIL-6 mRNA = experiment: Inhibition of hIL-6 mRNA transcription in U937 cells; assay type: cell-based, human; conditions: LPS stimulation, active = IC50 <30 μM
# Experimental: In this example, hIL-6 mRNA in tissue culture cells was quantitated to measure the transcriptional inhibition of hIL-6 when treated with a compound of the present disclosure.
# A human leukemic monocyte lymphoma cell line (U937) was plated (3.2×10^4 cells per well) in a 96-well plate in […] RPMI-1640 containing 10% FBS and penicillin/streptomycin, and differentiated into macrophages for 3 days in 60 ng/mL PMA ([…]) at 37° C. in 5% CO2 prior to the addition of the compound of interest. The cells were pretreated for 1 h with the test compound prior to stimulation with 1 ug/mL lipopolysaccharide from Escherichia coli. The cells were incubated at 37° C. for 3 h before the cells were harvested. At time of harvest, the spent media was removed from the cells and the cells were rinsed in […] PBS. Cell lysis solution (70 μL) was added the cells in each well and incubated for 5-10 min at room temperature, to allow for complete cell lysis and detachment. mRNA was then prepared using the “mRNA Catcher PLUS plate” (Invitrogen), according to the protocol supplied. After the last wash, as much wash buffer as possible was aspirated without allowing the wells to dry. Elution buffer (E3, 70 μL) was then added to each well. mRNA was then eluted by incubating the mRNA Catcher PLUS plate with Elution Buffer for 5 min at 68° C. and then immediately placing the plate on ice.
# The eluted mRNA isolated was then used in a one-step quantitative real-time PCR reaction, using components of the Ultra Sense Kit together with Applied Biosystems primer-probe mixes. Real-time PCR data was analyzed, normalizing the Ct values for hIL-6 to an internal control, prior to determining the fold induction of each unknown sample, relative to the control.
# T1 sequence (P25440 344-453 limits assumed): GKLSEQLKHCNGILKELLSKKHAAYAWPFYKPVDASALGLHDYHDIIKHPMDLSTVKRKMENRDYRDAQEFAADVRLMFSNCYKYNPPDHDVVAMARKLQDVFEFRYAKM
SMILES,FRET activity (IC50 <30 μM) BRD2(2) [1],FRET activity (IC50 <30 μM) BRD4(1) [2],Cell Proliferation activity (IC50 <30 μM) [3],c-myc activity (IC50 <30 μM) (c-myc),IL-6 activity (IC50 <30 μM) (hIL-6 mRNA)
"Cc1noc(C)c1-c1ccc(=O)n(Cc2ccccn2)n1 [Example 2, 6-(3,5-Dimethylisoxazol-4-yl)-2-(pyridin-2-ylmethyl)pyridazin-3(2H)-one]",Active,Active,Not Active,Not Active,
"Cc1noc(C)c1-c1ccc(=O)n(Cc2cccc(F)c2)n1 [Example 22, 6-(3,5-Dimethylisoxazol-4-yl)-2-(3-fluorobenzyl)pyridazin-3(2H)-one]",Active,Active,Not Active,Not Active,
"Cc1noc(C)c1-c1ccc(=O)n(Cc2ccccc2Cl)n1 [Example 26, 2-(2-Chlorobenzyl)-6-(3,5-dimethylisoxazol-4-yl)pyridazin-3(2H)-one]",Active,Active,Active,,Active
"CC(=O)Nc1cc(-c2c(C)noc2C)cn(Cc2ccccc2)c1=O [Example 71, N-(1-Benzyl-5-(3,5-dimethylisoxazol-4-yl)-2-oxo-1,2-dihydropyridin-3-yl)acetamide]",Active,Active,,Active,
"Cc1noc(C)c1-c1ccc(=O)n(Cc2ccsc2)c1 [Example 79, 5-(3,5-Dimethylisoxazol-4-yl)-1-(thiophen-3-ylmethyl)pyridin-2(1H)-one]",Active,Active,,Active,Active
"Cc1noc(C)c1-c1cc(C)c(=O)n(Cc2ccncc2)n1 [Example 87, 6-(3,5-Dimethylisoxazol-4-yl)-4-methyl-2-(pyridin-4-ylmethyl)pyridazin-3(2H)-one]",Active,Active,Not Active,,Not Active
"Cc1noc(C)c1-c1ccc(=O)n(Cc2c(F)cccc2F)n1 [Example 90, 2-(2,6-Difluorobenzyl)-6-(3,5-dimethylisoxazol-4-yl)pyridazin-3(2H)-one]",Active,Active,Not Active,Not Active,
"Cc1ccccc1Cn1cc(-c2c(C)noc2C)ccc1=O [Example 121, 5-(3,5-Dimethylisoxazol-4-yl)-1-(2-methylbenzyl)pyridin-2(1H)-one]",Active,Active,,Active,Active
"Cc1noc(C)c1-c1ccc(=O)n(Cc2ccccc2C#N)c1 [Example 135, 2-((5-(3,5-Dimethylisoxazol-4-yl)-2-oxopyridin-1(2H)-yl)methyl)benzonitrile]",Active,Active,,Active,
"COCc1noc(C)c1-c1ccc(=O)n(Cc2ccccc2)c1 [Example 187, 1-benzyl-5-(3-(methoxymethyl)-5-methylisoxazol-4-yl)pyridin-2(1H)-one]",,Active,Not Active,Not Active,Not Active
"Cc1noc(C)c1-c1cc(Nc2ccccc2)c(=O)n(Cc2ccc(Cl)cc2)c1 [Example 188, 1-(4-chlorobenzyl)-5-(3,5-dimethylisoxazol-4-yl)-3-(phenylamino)pyridin-2(1H)-one]",,Active,Not Active,Not Active,Active
COc1cncc(Nc2cc(-c3c(C)noc3C)cn(Cc3ccccc3)c2=O)c1 [Example 231],,Active,Active,Active,Active
"Cc1noc(C)c1-c1cc(N)c(=O)n(Cc2ccc(N3CCC3)cc2)c1 [Example 237, 3-Amino-1-(4-(azetidin-1-yl)benzyl)-5-(3,5-dimethylisoxazol-4-yl)pyridin-2(1H)-one]",,Active,Active,Active,Active
"Cc1noc(C)c1-c1cc(N)c(=O)n(Cc2ccccc2)n1 [Example 250, 4-amino-2-benzyl-6-(3,5-dimethylisoxazol-4-yl)pyridazin-3(2H)-one]",,Active,Active,,Active
"Cc1noc(C)c1-c1cc(N)c(=O)n(Cc2ccc(Cl)cn2)c1 [Example 255, 3-amino-1-((5-chloropyridin-2-yl)methyl)-5-(3,5-dimethylisoxazol-4-yl)pyridin-2(1H)-one]",,Active,Active,Active,
"Cc1noc(C)c1-c1cc(N)c(=O)n(Cc2ccc(C#N)cc2F)c1 [Example 261, 4-((3-amino-5-(3,5-dimethylisoxazol-4-yl)-2-oxopyridin-1(2H)-yl)methyl)-3-fluorobenzonitrile]",,Active,Active,Active,
"Cc1noc(C)c1-c1cc(N)c(=O)n(Cc2ccc(C#N)c(F)c2)c1 [Example 262, 4-((3-amino-5-(3,5-dimethylisoxazol-4-yl)-2-oxopyridin-1(2H)-yl)methyl)-2-fluorobenzonitrile]",,Active,Active,Active,
